{"source": "patent US20050251869A1", "about": "“Animal model for raising HDL-cholesterol with niacin” (priority 2004, published 2005)", "key": {"[1]": {"test_system": "wild type C57BI/6J control mice", "details": "for change in HDL-C compared with untreated WT mice: 1% niacin in diet", "text": "(§1) Materials: The mice used in these studies were pathogen-free C57BI/6J mice of the following genotypes: (1) wild type; (2) hemizygous human CETP-transgenic (hCETP-tg); (3) hemizygous human apoB100-transgenic, and 4) hemizygous human CETP and apoB100 dual-transgenic mice. The transgenic mice were purchased from Taconic Laboratories, Germantown, N.Y., where they were generated by introduction of genomic DNA fragments that drive expression of human CETP and/or apoB100 in the mouse liver (8-10).\n(§2) Methods: Male mice (hCETP-tg and wild type C57BI/6J control mice; ˜10 weeks of age; 5-7/group) were used in this study. The mice were fed a normal rodent chow diet (Purina 7012) along with varying levels of niacin (milled with diet, expressed as % by weight of diet). They were housed with normal lighting and were allowed access to food and water ad lib. Blood samples were obtained by retro-orbital plexus at one, two and three weeks of treatment. After the fourth week of treatment, the mice were fasted for four hours and then euthanized. After euthanization, blood samples were collected by cardiac puncture. Serum lipids (total cholesterol, HDL-cholesterol, TG and FFA, and lipoprotein profiles) were determined. Serum samples from four weeks of treatment were also measured for CETP enzyme activity."}, "[2]": {"test_system": "hCETP-tg mice", "details": "for increase of HDL-C / reduction of TG: 1% niacin in diet", "text": "as §2\nBlood samples were obtained by retro-orbital plexus after one week of treatment, as in Example 1. After two weeks of treatment, the mice were fasted for four hours and then euthanized. Blood samples were collected by cardiac puncture. Serum lipids (total cholesterol, HDL-cholesterol, total triglyceride and FFA) were determined."}, "[3]": {"test_system": "human-CETP/human-apoA1 dual-transgenic mice", "details": "1% niacin in diet, one week", "text": "In addition, hemizygous human-CETP/human-apolipoprotein A1 dual-transgenic mice were generated by cross-breeding homozygous human-CETP transgenic male mice, purchased from Taconic, with homozygous human-apolipoprotein A1 transgenic female mice, purchased from Jackson Laboratories.\nMethods: Mice used in this study express both human CETP and human apolipoprotein A1 genes. The mice were generated by cross-breeding homozygous human-CETP transgenic male mice with homozygous female human-apolipoprotein A1-transgenic mice. Female mice (˜10 weeks of age, 10/group) were fed a normal rodent chow diet (Purina 7012) with or without 1% niacin (milled with the feed). They were housed with normal lighting and were allowed access to food and water ad lib. After seven days of treatment, the mice were fasted for four hours and then euthanized. Blood samples were collected by cardiac puncture. Serum lipids (total cholesterol, HDL-cholesterol, TG and FFA, and lipoprotein profiles) were determined."}, "[4]": {"test_system": "hemizygous human CETP-transgenic (hCETP-tg) mice", "experiment": "Example 1: four-week niacin-in-diet study, serum lipids, hCETP-tg mice", "type": "in vivo, mouse", "details": "for change in HDL-C compared with untreated h-CETP-tg mice: 1% niacin in diet", "text": "as §1, §2"}, "[5]": {"test_system": "hemizygous human-CETP/ApoB100 dual transgenic mice", "text": "Methods: This example is a study of the lipid modulating effect of niacin in human CETP and Apo-B100 dual transgenic mice. These mice have a more human-like lipoprotein profile than WT mice, with a lower HDUnon-HDL-C ratio.\nMice (hemizygous human-CETP/ApoB100 dual transgenic mice, ˜10 weeks of age, 7-8/group) were fed a normal rodent chow diet (Purina 7012) along with varying levels of niacin (milled with the feed). They were housed with normal lighting and were allowed access to food and water ad lib. Blood samples were obtained by retro-orbital plexus after one week of treatment. After two weeks of treatment, the mice were fasted for four hours and then euthanized. Blood samples were collected by cardiac puncture. Serum lipids (total cholesterol, HDL-cholesterol, TG and FFA, and lipoprotein profiles) were determined."}, "[6]": {"test_system": "human ApoB 100 transgenic mice", "details": "experiments similar to Examples 1 and 2", "text": "as §1"}, "[7]": {"details": "lipoprotein profiles by size exclusion chromatography"}, "[8]": {"details": "hCETP-tg mice, niacin in diet, appears dose-dependent"}, "[9]": {"details": "one week of treatment with niacin in diet"}, "[10]": {"details": "size exclusion chromatography, after two weeks of treatment"}}, "note": "Where two headings read alike, the source gives them in different places."}
{"compound": "O=C(O)c1cccnc1", "note": "[niacin, nicotinic acid]", "values": [{"measurement": "change in HDL-C compared with untreated WT mice", "setting": "[1]; 1 week", "result": "−9", "unit": "%"}, {"measurement": "change in HDL-C compared with untreated WT mice", "setting": "[1]; 2 weeks", "result": "−17", "unit": "%"}, {"measurement": "change in HDL-C compared with untreated WT mice", "setting": "[1]; 3 weeks", "result": "−13", "unit": "%"}, {"measurement": "change in HDL-C compared with untreated WT mice", "setting": "[1]; 4 weeks", "result": "−7", "unit": "%"}, {"measurement": "serum lipids, including TG, total cholesterol, HDL-C, non-HDL-C, and FFA", "setting": "[1]; wild-type control mice, niacin in diet", "result": "broad reduction"}, {"measurement": "increase of HDL-C", "setting": "[2]; one week of treatment", "result": 35, "unit": "%"}, {"measurement": "reduction of TG", "setting": "[2]; one week of treatment", "result": 44, "unit": "%"}, {"measurement": "increase of HDL-C", "setting": "[2]; two weeks of treatment", "result": 37, "unit": "%"}, {"measurement": "reduction of TG", "setting": "[2]; two weeks of treatment", "result": 45, "unit": "%"}, {"measurement": "HDL particle size", "setting": "[2]; [7]", "result": "without significant change"}, {"measurement": "TG contents of VLDL, LDL and HDL particles", "setting": "[2]; [7]", "result": "all reduced"}, {"measurement": "cholesterol content in the HDL particles", "setting": "[2]; [7]", "result": "increase"}, {"measurement": "cholesterol content of the LDL and VLDL particles", "setting": "[2]; [7]", "result": "reduced"}, {"measurement": "elevation of HDL-C", "setting": "[3]; female mice", "result": "~38", "unit": "%"}, {"measurement": "reduction of TG", "setting": "[3]; female mice", "result": 53, "unit": "%"}, {"measurement": "reduction of non-HDL-C", "setting": "[3]; female mice", "result": 39, "unit": "%"}, {"measurement": "Non-HDL-C", "setting": "[3]; male mice", "result": "did not change significantly"}, {"measurement": "elevation of HDL-C", "setting": "[3]; male mice", "result": 27, "unit": "%"}, {"measurement": "reduction of TG", "setting": "[3]; male mice", "result": 36, "unit": "%"}, {"measurement": "change in HDL-C compared with untreated h-CETP-tg mice", "setting": "[4]; 1 week", "result": "+40%"}, {"measurement": "change in HDL-C compared with untreated h-CETP-tg mice", "setting": "[4]; 2 weeks", "result": "+38%"}, {"measurement": "change in HDL-C compared with untreated h-CETP-tg mice", "setting": "[4]; 3 weeks", "result": "+37%"}, {"measurement": "change in HDL-C compared with untreated h-CETP-tg mice", "setting": "[4]; 4 weeks", "result": "+23%"}, {"measurement": "FFA", "setting": "[4]; [8]", "result": "reduction"}, {"measurement": "HDL-cholesterol", "setting": "[4]; [8]", "result": "increase"}, {"measurement": "TG", "setting": "[4]; [8]", "result": "reduction"}, {"measurement": "non-HDL cholesterol", "setting": "[4]; [8]", "result": "reduction"}, {"measurement": "TG in the VLDL fractions", "setting": "[4]; [7]", "result": "decline"}, {"measurement": "cholesterol in the HDL fractions", "setting": "[4]; [7]", "result": "rise"}, {"measurement": "increase in HDL-C", "setting": "[5]; 0.1% niacin in diet, two weeks", "result": 41, "unit": "%"}, {"measurement": "decrease in HDL-C", "setting": "[5]; 0.3% niacin in diet, two weeks", "result": 5, "unit": "%"}, {"measurement": "increase in HDL-C", "setting": "[5]; 1% niacin in diet, two weeks", "result": 15, "unit": "%"}, {"measurement": "TC and TG", "setting": "[5]; [9]", "result": "decrease"}, {"measurement": "amount of HDL-C", "setting": "[5]; [9]", "result": "without a significant change"}, {"measurement": "TG in the VLDL and LDL fractions", "setting": "[5]; [10]", "result": "decrease"}, {"measurement": "cholesterol in the HDL fractions", "setting": "[5]; [10]", "result": "increase"}, {"measurement": "cholesterol in the LDL fractions", "setting": "[5]; [10]", "result": "decrease"}, {"measurement": "level of HDL-C", "setting": "[6]", "result": "does not raise"}]}
